How the values were obtained:
Format in all cases: biochemical
[1] = target: FXa (Homo sapiens, UniProt P00742); experiment: Determination of selectivity: FXa inhibition, chromogenic substrate S2765 assay; conditions: fold selectivity for FXIIa over FXa
Protocol: (§1) The activities of the compounds of the invention have been determined in vitro using the following assays protocols for the screening of activity of FXIIa and other proteases. Each of these assays were performed in a purified system employing the use of chromogenic assays in microplate plate wells. Chromogenic peptide substrates mimicking natural protein substrates are attached via an amide bond to a chromogenic group. Paranitroaniline (pNA) is released from the peptide following catalyses by the proteolytic enzyme; the absorbance increases and can be monitored at 405 nm.
(§2) All compounds were dissolved in 100% (v/v) DMSO to a stock concentration of 10 mM, the highest concentration of compound used in each assay is 500 μM. The final concentrations of DMSO were 5% (v/v) in 50 mM Tris 137 mM NaC pH 7.4. Where no test compound was added a final concentration of 5% DMSO was employed.
(§3) Determination of Selectivity
(§4) To determine selectivity of test compounds, these test compounds were assayed for inhibitory activity against other serine proteases including FXa and thrombin. Essentially compounds at increasing concentrations were incubated with each enzyme: FXa (5 nM) and thrombin (5 nM), for 10 mins at 37° C. followed the appropriate chromogenic substrate, S2765 ([…]), and GPR ([…]) respectively in 50 mM Tris, 137 mM NaCl, pH 7.4. Chromogenic substrates S2765 was from Chromogenix, and GPR from Bachem. Kinetic readings at 405 nm were monitored every 12 secs for a total duration of 3 hours at 37° C. Gradients of initial rates were determined and employed to calculate IC50 values. Values of IC50 were converted to Ki values based on the formula: Ki=IC50/(1+[Substrate]/Km)
(§5) Where [Substrate] denotes the concentration of substrate used in the assay and Km is the determined value of each enzyme with its own substrate.
(§6) The fold selectivity for FXIIa over thrombin for the compounds of the invention has been categorised based on the fold selectivity values, the categories being “+”, “++” and “+++”. The category “+” refers to fold selectivity values less than 10. The category “++” refers to a fold selectivity value of 10 to 100. The category “+++” refers to fold selectivity values greater than 100.
The fold selectivity for FXIIa over FXa for the compounds of the invention has been categorised based on the fold selectivity values, the categories being “o”, “oo” and “ooo”. The category “o” refers to fold selectivity values less than 10. The category “oo” refers to a fold selectivity value of 10 to 100. The category “ooo” refers to fold selectivity values greater than 100.

[2] = target: T1, FXIIa (Homo sapiens, UniProt P00748); experiment: Determination of Factor XIIa inhibition, chromogenic substrate S-2302 assay; conditions: human FXIIa alpha
T1 sequence (P00748 373-615 limits assumed): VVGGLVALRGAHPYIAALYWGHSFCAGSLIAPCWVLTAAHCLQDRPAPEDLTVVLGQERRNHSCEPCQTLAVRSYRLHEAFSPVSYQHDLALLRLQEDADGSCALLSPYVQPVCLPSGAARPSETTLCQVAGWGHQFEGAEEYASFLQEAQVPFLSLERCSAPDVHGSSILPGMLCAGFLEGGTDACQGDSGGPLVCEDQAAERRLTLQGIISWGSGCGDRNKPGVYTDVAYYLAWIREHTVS
T1 sequence (P00748 20-372 partner limits assumed): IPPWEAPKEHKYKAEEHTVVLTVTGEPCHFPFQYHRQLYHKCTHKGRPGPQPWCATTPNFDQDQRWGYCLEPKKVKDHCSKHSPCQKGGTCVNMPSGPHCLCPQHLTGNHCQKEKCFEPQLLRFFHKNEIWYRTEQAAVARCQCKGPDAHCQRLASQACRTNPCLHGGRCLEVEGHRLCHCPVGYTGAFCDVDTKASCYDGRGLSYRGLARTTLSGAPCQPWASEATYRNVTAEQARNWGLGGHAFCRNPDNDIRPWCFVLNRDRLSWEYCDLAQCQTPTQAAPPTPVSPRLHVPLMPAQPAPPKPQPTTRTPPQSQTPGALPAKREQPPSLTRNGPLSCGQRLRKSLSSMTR
Protocol: as §1, §2
Determination of Factor XIa Inhibition
Factor XIa activity was measured using a chromogenic substrate S-2302 (Chromogenix). Various concentrations of compound were incubated with 10 nM of FXIIa and incubated at 37° C. for 10 minutes in 50 mM Tris, 137 mM NaCl, pH 7.4, prior to the addition of a final concentration of 450 µM S-2302 chromogenic substrate. Kinetic readings at 405 nm were monitored every 12 secs for a total duration of 3 hours at 37° C. Gradients of initial rates were determined and employed to calculate IC50 values. Values of IC50 were converted to Ki values based on the formula: Ki=IC50/(1+[Substrate]/Km).
The activity of the compounds of the invention has been categorised based on the Ki values, the categories being “*”, “**” and “***”. […] The category “**” refers to compounds with a Ki value of 0.2 μM to 2 μM.

[3] = target: T2, thrombin (Homo sapiens, UniProt P00734); experiment: Determination of selectivity: thrombin inhibition, chromogenic substrate GPR assay; conditions: fold selectivity for FXIIa over thrombin
T2 construct: FXa (5 nM) and thrombin (5 nM)
Protocol: as §1, §2, §3, §4, §5, §6

Sequence of FXa (P00742 235-488 limits assumed): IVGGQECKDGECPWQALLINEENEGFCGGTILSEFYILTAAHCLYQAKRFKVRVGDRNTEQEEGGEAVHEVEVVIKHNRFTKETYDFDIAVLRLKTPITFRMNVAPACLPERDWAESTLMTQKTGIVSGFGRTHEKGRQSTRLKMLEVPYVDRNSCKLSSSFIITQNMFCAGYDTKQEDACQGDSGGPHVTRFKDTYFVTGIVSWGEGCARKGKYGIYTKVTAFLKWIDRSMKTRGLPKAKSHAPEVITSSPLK
Sequence of FXa (P00742 41-179 partner limits assumed): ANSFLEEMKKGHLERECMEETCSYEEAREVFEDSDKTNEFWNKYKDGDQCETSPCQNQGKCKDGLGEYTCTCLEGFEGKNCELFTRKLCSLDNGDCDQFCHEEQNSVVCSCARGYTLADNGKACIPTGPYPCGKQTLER

| FXa (human)/FXIIa alpha (human) [1] | Ki [2] | Thrombin (human)/FXIIa alpha (human) [3] | SMILES |
| --- | --- | --- | --- |
| ∘∘∘ | < 200 nM | ++ (fold selectivity value of 10 to 100) | Cn1nc(Cl)c2cc(CNC(=O)[C@@H]3C[C@@H](Cc4ccncc4)CN3C(=O)[C@H](N)CCC(=O)N3CCCC3)ccc21 [Example M05241] |
| ∘∘ | 200 to 2000 nM | + (fold selectivity values less than 10) | Nc1nccc2cc(CNC(=O)[C@@H]3C[C@@H](Cc4cccc(Cl)c4)CN3C(=O)[C@H](N)CCC(=O)N3CCCC3)ccc12 [Example M05266] |

More lines, now with the values behind:

| SMILES | FXa (human)/FXIIa alpha (human) [1] | Ki [2] | Thrombin (human)/FXIIa alpha (human) [3] |
| --- | --- | --- | --- |
| Cn1nnc2cc(CNC(=O)[C@@H]3C[C@H](Cc4cccc(Cl)c4)CN3C(=O)[C@H](N)CCC(=O)N3CCCC3)ccc21 [Example M05210, (2S,4S)-1-((R)-2-amino-5-oxo-5-pyrrolidin-1-yl-pentanoyl)-4-(3-chloro-benzyl)-pyrrolidine-2-carboxylic acid (1-methyl-1H-benzotriazol-5-ylmethyl)-amide] | ∘∘∘ | 200 to 2000 nM | +++ (fold selectivity values greater than 100) |
| Cn1nnc2cc(CNC(=O)[C@@H]3C[C@@H](Cc4ccc(C(F)(F)F)cc4)CN3C(=O)[C@H](N)CCC(=O)N3CCCC3)ccc21 [Example M05336] | ∘∘∘ | < 200 nM | +++ (fold selectivity values greater than 100) |
| Cn1nnc2cc(CNC(=O)[C@@H]3C[C@H](C(F)(F)F)CN3C(=O)[C@H](N)CCC(=O)N3CCCC3)ccc21 [Example M05139] | ∘∘∘ | > 2000 nM | +++ (fold selectivity values greater than 100) |
| CNC(=O)N[C@H]1C[C@@H](C(=O)NCc2ccc3c(c2)nnn3C)N(C(=O)[C@H](N)CCc2ccccc2)C1 [Example M05208] | ∘∘ | > 2000 nM | ++ (fold selectivity value of 10 to 100) |
| NCc1ccc(CNC(=O)[C@@H]2C[C@H](C3CCCCC3)CN2C(=O)[C@H](N)CCc2ccccc2)cc1 [Example M05076, (2S,4R)-1-((R)-2-Amino-4-phenyl-butyryl)-4-cyclohexyl-pyrrolidine-2-carboxylic acid 4-aminomethyl-benzylamide] | ∘∘ | > 2000 nM | ++ (fold selectivity value of 10 to 100) |
| Cn1nnc2cc(CNC(=O)[C@@H]3C[C@@H](Cc4ccncc4)CN3C(=O)[C@@H](CCC(=O)N3CCCC3)NCC(F)(F)F)ccc21 [Example M05271] | ∘∘ | > 2000 nM | ++ (fold selectivity value of 10 to 100) |
| COc1ccc(C[C@@H]2C[C@@H](C(=O)NCc3ccc4c(c3)nnn4C)N(C(=O)[C@H](N)CCc3ccc(F)cc3)C2)cc1 [Example M00949] | ∘∘ | 200 to 2000 nM | +++ (fold selectivity values greater than 100) |
| COc1ccc(C[C@@H]2C[C@@H](C(=O)NCc3ccc4c(c3)nnn4C)N(C(=O)[C@H](N)CCC(=O)N3CCCC3)C2)cc1 [Example M05272] | ∘∘∘ | < 200 nM | +++ (fold selectivity values greater than 100) |
| Cc1ccccc1CC[C@@H](N)C(=O)N1CCC[C@H]1C(=O)NCc1ccc(CN)cc1 [Example M00760] | ∘∘ | > 2000 nM | + (fold selectivity values less than 10) |
| Cn1cc(-c2cccc(C[C@@H]3C[C@@H](C(=O)NCc4ccc5c(c4)nnn5C)N(C(=O)[C@H](N)CCC(=O)N4CCCC4)C3)c2)cn1 [Example M05330] | ∘∘∘ | 200 to 2000 nM | +++ (fold selectivity values greater than 100) |
| COC(=O)N[C@H]1C[C@@H](C(=O)NCc2ccc3c(c2)nnn3C)N(C(=O)[C@H](N)CCc2ccccc2)C1 [Example M05207] | ∘∘ | > 2000 nM | ++ (fold selectivity value of 10 to 100) |

Reference: US12336991B2, “Factor XIIA inhibitors” (UNIVERSITY OF LEEDS, priority 2018, dated 2025)
